Results from US10653688B2, “6-(6-membered heteroaryl and aryl)isoquinolin-3-yl carboxamides and preparation and use thereof” (Samumed, LLC, priority 2017, dated 2020).
Like-named read-outs stand apart in the source and are kept apart here.

Experiments:
[1] = test system: Wnt activity (SW480 colon carcinoma cells stably expressing the Sp5-Luc reporter gene); assay: Wnt activity screening assay (Sp5-Luc reporter gene assay); assay type: cell-based, human; conditions: Homo sapiens; for EC50: 36 to 48 hours; for inhibition at 10 µM: read-out: percent inhibition at 10 μM (given for EC50 >10 μM), 10 μM
Source text: The screening assay for Wnt activity is described as follows. Reporter cell lines can be generated by stably transducing cancer cell lines (e.g., colon cancer) or primary cells (e.g., IEC-6 intestinal cells) with a lentiviral construct that includes a Wnt-responsive promoter driving expression of the firefly luciferase gene.
SW480 colon carcinoma cells were transduced with a lentiviral vector expressing luciferase with a human Sp5 promoter consisting of a sequence of eight TCF/LEF binding sites. SW480 cells stably expressing the Sp5-Luc reporter gene and a hygromycin resistance gene were selected by treatment with 150 μg/mL of hygromycin for 7 days. These stably transduced SW480 cells were expanded in cell culture and used for all further screening activities. […] For Sp5-Luc reporter gene assays, the cells were plated at 4,000 cells/well in 384-well plates with a DMEM medium containing 1% fetal bovine serum, and 1% Penicillin-Streptomycin and incubated for 36 to 48 hours at 37° C. and 5% CO2. Following incubation, 15 μl of BriteLite Plus luminescence reagent (Perkin Elmer) was added to each well of the 384-well assay plates. The plates were placed on an orbital shaker for 2 min and then luminescence was quantified using the Envision (Perkin Elmer) plate reader. Readings were normalized to DMSO only treated cells, and normalized activities were utilized for EC50 calculations using the dose-response log (inhibitor) vs. response-variable slope (four parameters) nonlinear regression feature available in GraphPad Prism 5.0 (or Dotmatics).

[2] = test system: IL-6 in human peripheral blood mononuclear cells (huPBMCs); assay: IL-6 inhibition in LPS-stimulated human peripheral blood mononuclear cells (HTRF); assay type: cell-based; conditions: Homo sapiens, PBMC; for EC50: LPS 50 ng/mL, 22 hours, IL-6 HTRF; for inhibition at 10 µM: read-out: percent inhibition at 10 μM (given for EC50 >10 μM), LPS, IL-6, 10 μM
Protocol: Human Peripheral Blood Mononuclear Cells:
Fresh Normal PB MNC (Catalog # PB001, AllCells, Alameda, Calif.) were shipped overnight at 4° C. and resuspended in Roswell Park Memorial Institute (RPMI) 1640 Medium, with GlutaMAX Supplement (Catalog #61870127, ThermoFisher Scientific, Waltham, Mass.) supplemented with 1% Penicillin-Streptomycin (Catalog #15140163, ThermoFisher Scientific, Waltham, Mass.) and 1% fetal bovine serum (FBS) (Catalog #16140089, ThermoFisher Scientific, Waltham, Mass.) assay media.
Fresh normal human peripheral blood mononuclear cells (huPBMCs) were resuspended in 1% FBS-RPMI assay media with 1% Penicillin-Streptomycin 1% to a cell concentration of 1×10e6 cells/mL. […] 50 ng/mL of Lipopolysaccharides from Escherichia coli 0111:B4 (Catalog # L5293-2ML, Sigma-Aldrich, St. Louis, Mo.) was added after 2 hours and cells were incubated for another 22 hours at 37° C.-5% CO2. After 22 hour incubation, a mixture of anti-IL6 XL665 and anti-IL-6 Cryptate diluted in reconstitution buffer (Catalog #62IL6PEC, Cisbio Inc., Bedford, Mass.) was added to each well. Following incubation for 3 hours at room temperature, Homogeneous Time-Resolved Fluorescence (HTRF) was measured using the Envision (Perkin Elmer, Shelton, Conn.) at 665 nm and […]. The ratio of fluorescence at 665 nm to 620 nm was used as a readout for IL-6 quantification. All samples were processed in duplicate. Readings were normalized to DMSO treated cells and normalized activities were utilized for EC50 calculations. EC50 was determined using software generated by Dotmatics Limited (Windhill Bishops Stortford Herts, UK) using the Levenberg-Marquardt 4 parameter fitting procedure with finite different gradients.

[3] = test system: SW480 colon carcinoma cells; assay: Cell viability assay (CellTiter-Glo); assay type: cell-based, human; conditions: Homo sapiens; for EC50: 96 h, four days, CellTiter-Glo
Protocol: SW480 colon carcinoma cells were transduced with a lentiviral vector expressing luciferase with a human Sp5 promoter consisting of a sequence of eight TCF/LEF binding sites. SW480 cells stably expressing the Sp5-Luc reporter gene and a hygromycin resistance gene were selected by treatment with 150 μg/mL of hygromycin for 7 days. These stably transduced SW480 cells were expanded in cell culture and used for all further screening activities.
For the Cell Viability Assays, the cells were plated at 2,000 cells/well in 384-well plates with a DMEM medium containing 1% fetal bovine serum, and 1% Penicillin-Streptomycin and incubated for […] at 37° C. and 5% CO2. Eight replicates of DMSO-treated cells served as controls and cells treated with compound were performed in duplicate.
After incubation, 10 μL of CellTiter-Glo (Promega) was added to each well allowed to incubate for approximately 12 minutes. This reagent “results in cell lysis and generation of a luminescent signal proportional to the amount of ATP present. The amount of ATP is directly proportional to the number of cells present in culture, in agreement with previous reports. The CellTiter-Glo Assay generates a “glow-type” luminescent signal, produced by the luciferase reaction (Promega.com)”.

[4] = molecular target: recombinant DYRK1A kinase (Homo sapiens (Human), UniProt Q13627); assay: DYRK1A kinase assay (Ser/Thr 18 peptide Z-lyte, FRET)
[5] = test system: LL29 cells (primary human fibroblasts derived from IPF patients), α-smooth muscle actin; assay: Inhibition of fibrotic process: TGF-β1-treated primary human fibroblasts, αSMA staining; assay type: cell-based; conditions: Homo sapiens, Fibroblast; for EC50: 96 h, TGF-β1 20 ng/mL, 4 days, % cells positive for αSMA;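 on all read-outs here: controls were TGF-β1-stimulated wells with DMSO vehicle as the positive reference and cells given DMSO alone as the negative reference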
recombinant GSK3β kinase = recombinant GSK3β kinase (Homo sapiens (Human), UniProt P49841); assay: GSK3β kinase assay (Ser/Thr 09 peptide Z-lyte, FRET); assay type: biochemical;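 further: FRET read-out as coumarin over fluorescein emission ratio, compounds incubated one hour at room temperature, IC50 from dose-response curve fit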
[6] = DYRK1A kinase, head says EC50, method says IC50, ATP 30 μM
[7] = GSK3β kinase, head says EC50, method says IC50, ATP 46 μM

recombinant GSK3β kinase, sequence (P49841 whole entry): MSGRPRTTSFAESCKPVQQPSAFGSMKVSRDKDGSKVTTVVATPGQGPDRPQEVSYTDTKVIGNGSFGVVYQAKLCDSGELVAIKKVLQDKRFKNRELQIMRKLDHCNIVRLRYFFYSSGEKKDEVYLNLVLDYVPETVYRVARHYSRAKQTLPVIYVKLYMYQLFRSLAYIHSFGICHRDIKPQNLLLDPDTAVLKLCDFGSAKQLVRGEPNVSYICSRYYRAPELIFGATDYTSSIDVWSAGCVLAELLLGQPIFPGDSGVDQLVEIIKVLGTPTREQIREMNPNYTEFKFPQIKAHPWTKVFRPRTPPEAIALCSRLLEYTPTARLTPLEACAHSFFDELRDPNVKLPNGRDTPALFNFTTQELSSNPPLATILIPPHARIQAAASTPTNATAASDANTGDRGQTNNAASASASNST

CN1CCN(c2cc(C(=O)Nc3cc4cc(-c5cc(N)cc(F)c5)ccc4cn3)ccn2)CC1 [Compound 1, N-(6-(3-Amino-5-fluorophenyl)isoquinolin-3-yl)-2-(4-methylpiperazin-1-yl) isonicotinamide]
EC50 [1]: 4010 nM | EC50 [2]: 7160 nM | EC50 [3]: 5860 nM | EC50 [4, 6]: 75 nM | EC50 [5]: 2300 nM | EC50 (recombinant GSK3β kinase; [7]): > 10000 nM

CC(C)Nc1cc(F)cc(-c2ccc3cnc(NC(=O)c4ccnc(N5CCN(C)CC5)c4)cc3c2)c1 [Compound 2, N-(6-(3-Fluoro-5-(isopropylamino)phenyl)isoquinolin-3-yl)-2-(4-methylpiperazin-1-yl)isonicotinamide]
EC50 [1]: 2050 nM | EC50 [2]: 1330 nM | EC50 [3]: 1380 nM | EC50 [4, 6]: 354 nM | EC50 [5]: 884 nM | EC50 (recombinant GSK3β kinase; [7]): > 10000 nM

CN1CCN(c2cc(C(=O)Nc3cc4cc(-c5ccccn5)ccc4cn3)ccn2)CC1 [Compound 4, 2-(4-Methylpiperazin-1-yl)-N-(6-(pyridin-2-yl)isoquinolin-3-yl) isonicotinamide]
EC50 [1]: > 10000 nM | inhibition at 10 µM [1]: 3.3% | EC50 [2]: 6750 nM | EC50 [3]: > 10000 nM | inhibition at 10 µM ([3]; read-out: percent inhibition at 10 μM (given for EC50 >10 μM), 10 μM): 21.3% | EC50 [4]: 242 nM | EC50 [5]: 3750 nM | EC50 (recombinant GSK3β kinase): > 10000 nM

CN1CCN(c2cc(C(=O)Nc3cc4cc(-c5ccncc5)ccc4cn3)ccn2)CC1 [Compound 5, 2-(4-Methylpiperazin-1-yl)-N-(6-(pyridin-4-yl)isoquinolin-3-yl) isonicotinamide]
EC50 [1]: > 10000 nM | inhibition at 10 µM [1]: 38.5% | EC50 [2]: > 10000 nM | inhibition at 10 µM [2]: 4.1% | EC50 [3]: 9460 nM | EC50 [4]: 18 nM | EC50 [5]: 2450 nM | EC50 (recombinant GSK3β kinase): > 10000 nM

CN1CCN(c2cc(C(=O)Nc3cc4cc(-c5cccnc5)ccc4cn3)ccn2)CC1 [Compound 13, 2-(4-Methylpiperazin-1-yl)-N-(6-(pyridin-3-yl)isoquinolin-3-yl) isonicotinamide]
EC50 [1]: 159 nM | EC50 [2]: 2820 nM | EC50 [3]: 324 nM | EC50 [4]: 3 nM | EC50 [5]: 805 nM | EC50 (recombinant GSK3β kinase): > 10000 nM

CN1CCN(c2cc(C(=O)Nc3cc4cc(-c5cncc(F)c5)ccc4cn3)ccn2)CC1 [Compound 24, N-(6-(5-Fluoropyridin-3-yl)isoquinolin-3-yl)-2-(4-methylpiperazin-1-yl) isonicotinamide]
EC50 [1]: > 10000 nM | inhibition at 10 µM [1]: 20.2% | EC50 [2]: > 10000 nM | inhibition at 10 µM [2]: 2.8% | EC50 [3]: 9520 nM | EC50 [4, 6]: 11 nM | EC50 [5]: 2770 nM | EC50 (recombinant GSK3β kinase; [7]): > 10000 nM

CN1CCN(c2cc(C(=O)Nc3cc4cc(-c5cncc(Cl)c5)ccc4cn3)ccn2)CC1 [Compound 25, N-(6-(5-Chloropyridin-3-yl)isoquinolin-3-yl)-2-(4-methylpiperazin-1-yl) isonicotinamide]
EC50 [1]: > 10000 nM | inhibition at 10 µM [1]: 8.9% | EC50 [2]: > 10000 nM | inhibition at 10 µM [2]: 4.6% | EC50 [3]: 8870 nM | EC50 [4, 6]: > 10000 nM | EC50 [5]: > 10000 nM | inhibition at 10 µM ([5]; read-out: percent inhibition at 10 μM (given for EC50 >10 μM), TGF-β1, αSMA, 10 μM): 44.8% | EC50 (recombinant GSK3β kinase; [7]): > 10000 nM
